Test results: US8541457B2, “Aminothiazole derivatives as human stearoyl-CoA desaturase inhibitors” (Xenon Pharmaceuticals Inc., priority 2005, dated 2013)

Structure (SMILES) | melting point
Cc1nc(NC(=O)CC2CC2)sc1C(=O)NCc1ccccc1 [Example 2.41, 2-(2-Cyclopropylacetylamino)-4-methylthiazole-5-carboxylic Acid Benzylamide] | 136 to 139 °C
Cc1nc(NC(=O)c2ccncc2)sc1C(=O)NCc1ccccc1 [Example 1, N-(5-Benzylcarbamoyl-4-methylthiazol-2-yl)isonicotinamide] | 171 to 172 °C
Cc1nc(NC(=O)c2ccccc2)sc1C(=O)NCC1CC1 [Example 7, 2-Benzoylamino-4-methylthiazole-5-carboxylic Acid Cyclopropylmethylamide] | 163 to 166 °C
Cc1nc(NC(=O)c2ccccc2)sc1C(=O)NCc1cccc(Cl)c1 [Example 7.1, 2-Benzoylamino-4-methylthiazole-5-carboxylic Acid 3-Chlorobenzylamide] | 198 to 199 °C
Cc1nc(NC(=O)c2ccc(Cl)c(Cl)c2)sc1C(=O)NCc1ccccc1 [Example 2.37, 2-(3,4-Dichlorobenzoylamino)-4-methylthiazole-5-carboxylic Acid Benzylamide] | 212 to 214 °C
Cc1nc(NC(=O)c2ccc(OC(F)(F)F)cc2)sc1C(=O)NCc1ccccc1 [Example 2.32, 4-Methyl-2-(4-trifluoromethoxybenzoylamino)thiazole-5-carboxylic Acid Benzylamide] | 168 to 170 °C
Cc1ccc(S(=O)(=O)Nc2nc(C)c(C(=O)NCc3ccccc3)s2)cc1 [Example 2.42, 4-Methyl-2-(toluene-4-sulfonylamino)thiazole-5-carboxylic Acid Benzylamide] | 242 to 245 °C
Cc1nc(NC(=O)c2ccn(-c3ccccc3)c(=O)c2)sc1C(=O)NCc1ccccc1 [Example 15, N-Benzyl-4-methyl-2-(2-oxo-1-phenyl-1,2-dihydropyridine-4-carboxamido)thiazole-5-carboxamide] | 260 to 262 °C
Cc1nc(NC(=O)c2ccccc2)sc1C(=O)NCc1ccccc1C(F)(F)F [Example 7.5, 2-Benzoylamino-4-methylthiazole-5-carboxylic Acid 2-Trifluoromethylbenzylamide] | 198 to 199 °C
Cc1nc(NC(=O)c2ccc(-c3nn[nH]n3)cc2)sc1C(=O)NCc1ccccc1 [Example 6, 4-Methyl-2-[4-(2H-tetrazol-5-yl)benzoylamino]thiazole-5-carboxylic Acid Benzylamide] | > 300 °C
O=C(Nc1nc(Cl)c(C(=O)NCc2ccccc2)s1)c1ccccc1 [Example 3.1, 2-Benzoylamino-4-chlorothiazole-5-carboxylic Acid Benzylamide] | 247 to 249 °C
Cc1nc(NC(=O)c2cc[nH]c(=O)c2)sc1C(=O)NCc1ccccc1 [Example 14, N-Benzyl-4-methyl-2-(2-oxo-1,2-dihydropyridine-4-carboxamido)thiazole-5-carboxamide] | 290 to 292 °C
Cc1nc(NC(=O)c2ccccc2)sc1C(=O)NCc1ccccc1F [Example 7.3, 2-Benzoylamino-4-methylthiazole-5-carboxylic Acid 2-Fluorobenzylamide] | 180 to 183 °C
Cc1nc(NCc2ccccc2)sc1C(=O)NCc1ccccc1 [Example 8, 2-Benzylamino-4-methylthiazole-5-carboxylic Acid Benzylamide] | 169 to 172 °C
Cc1nc(NC(=O)c2cccc(F)c2)sc1C(=O)NCc1ccccc1 [Example 2.31, 2-(3-Fluorobenzoylamino)-4-methylthiazole-5-carboxylic Acid Benzylamide] | 162 to 165 °C
Cc1nc(NC(=O)c2cc(Cl)ccc2F)sc1C(=O)NCc1ccccc1 [Example 2.30, 2-(5-Chloro-2-fluorobenzoylamino)-4-methylthiazole-5-carboxylic Acid Benzylamide] | 175 to 178 °C
Cc1nc(NC(=O)Cc2ccccc2)sc1C(=O)NCc1ccccc1 [Example 2.39, 4-Methyl-2-phenylacetylaminothiazole-5-carboxylic Acid Benzylamide] | 63 to 65 °C
